{"source": "patent US20130123287A1", "about": "“CONTROL AGENT FOR SOFT ROT AND CONTROL METHOD FOR THE SAME” (ISHIHARA SANGYO KAISHA, LTD., priority 2010, published 2013)", "key": {"[1]": {"test_system": "soft rot of Chinese cabbage", "assay": "Test for controlling soft rot of Chinese cabbage, Example 4 / Comparative Example 4 (field, cultivar Ouraku 60)", "type": "in vivo", "conditions": "500 g ai/10 a, 150 L/10 a sprayed onto planting holes before planting, 49 days after start", "source_text": "(§1) Frequency of the disease=[sigma(number of plants with the onset of the disease at each severity level*index of the onset of the disease)/(plants examined*4)]*100\n(§2) Disease control value=[1-(frequency of the disease in the treated lot/frequency of the disease in the non-treated lot)]*100\n(§3) • 0: No onset • 1: Onset in some of outer leaves (shippable) • 2: Onset in outer leaves and some of head leaves (by removing damaged parts, the resulting cabbage can be shipped as small cabbage but is ranked as grade B). • 3: Most of head leaves are inflicted with the onset of the disease or with severer damages (not shippable) • 4: Whole cabbage plant is inflicted with the onset of the disease and is dead.\n442 g/lkresoxim-methyl (STROBY FLOWABLE [trade name], manufactured by BASF) was adjusted to 500 g ai/10a (0.5 g/m^2, 1131 ml Product/10a) as the amount of the active ingredient and to 150 L/10a as the volume of diluent water.\n70% w/w thiophanate methyl (Topsin M WF [trade name], manufactured by Nippon Soda Co., Ltd.) was adjusted to 1000 g ai/10a (1 g/m^2, 1429 g Product/10a) as the amount of the active ingredient and to 150 L/10a as the volume of diluent water.\n50% w/w boscalid (Cantus DF [trade name], manufactured by BASF) was adjusted to 500 g ai/10a (0.5 g/m^2; 1000 g Product/10a) as the amount of the active ingredient and to 150 L/10a as the volume of diluent water.\n50% w/w procymidone (Sumilex WP [trade name], manufactured by Sumitomo Chemical Agro) was adjusted to 500 g ai/10a (0.5 g/m^2, 1000 g Product/10a) as the amount of the active ingredient and to 150 L/10a as the volume of diluent water.\n400 g/l iprodione (Rovral 500 Aqua [trade name], manufactured by Bayer Crop Science Co., Ltd.) was adjusted to 500 g ai/10a (0.5 g/m^2, […] Product/10a) as the amount of the active ingredient and to 150 L/10a as the volume of diluent water.\n200 g/l fludioxonil (Seibia FLOWABLE [trade name], manufactured by Syngenta Japan K.K.) was adjusted to 500 g ai/10a (0.5 g/m^2, 2500 ml Product/10a) as the amount of the active ingredient and to 150 L/10a as the volume of diluent water.\n400 g/l mepanipyrim (Flupika PLOWABLE [trade name], manufactured by Nippon Soda Co., Ltd.) was adjusted to 500 g ai/10a (0.5 g/m^2, 1250 ml Product/10a) as the amount of the active ingredient and to 150 L/10a as the volume of diluent water.\nAfter spreading an agricultural mulch-sheet and opening planting holes (diameter of about 5 cm) for permanent planting through the mulch-sheet, the spray solutions prepared as described above were sprayed onto the planting holes such that the amount of treated active ingredient of each spray solution was 0.5 g/m^2 (150 L per 10a), followed by air-drying; subsequently, seedlings of Chinese cabbage (cultivar: Ouraku 60) grown for 4 weeks in cell mold trays (128 holes/nursery box) were planted such that 30 seedlings were planted in each test lot having an area of 2.5 m^2 with two replications.\nPreparation was performed by diluting a chemical solution (Agrimycin WP100 [trade name] manufactured by Pfizer) containing oxytetracycline at 1.5% and streptomycin sulfate salt at 18.8% with water to 1/1500.\nIn a field spread with the agricultural mulch-sheet, Chinese cabbage seedlings (cultivar: Ouraku 60) grown by the same method as in Example 4 were planted by the same method as in Example 4, for spraying the spray solution prepared above in (1) (at each spray volume of 300 L/10a) twice (28 days and 42 days after the planting of the seedlings) on the stems and leaves.\n(§4) 49 days after the start of the tests, all the plants in each lot were examined about the severity level of the disease to assess the frequency of the disease and the disease control value. Herein, the frequency of the disease and the disease control value were determined in the same manner as described above. Because soft rot is a disease with damages hardly controlled, herein, even a chemical at the level C determined by the tests of the effects can practically be used."}, "[2]": {"test_system": "bacteria causing the soft rot (Erwinia carotovora)", "assay": "Inhibition test of growth of bacteria causing soft rot, Reference Test Example 4", "type": "cell-based", "conditions": "for formed colonies (growth state), grade: PSA medium, 27 degrees Celsius, 2 days", "source_text": "An inhibition test of the growth of bacteria causing the soft rot was done, when a control agent was directly applied to the bacteria causing the soft rot. A given volume of each pesticide of kresoxim-methyl (STROBY DF [trade name] manufactured by BASF), thiophanate methyl (Topsin M WP [trade name], manufactured by Nippon Soda Co., Ltd), boscalid (Cantus DF [trade name] manufactured by BASF), procymidone (Sumilex WP [trade name] manufactured by Sumitomo Chemical Agro Co., Ltd.) and streptomycin (Mycin Wettable powder [trade name] manufactured by Hokko Chemical Industry Co., Ltd.) was added together with a suspension of the bacteria causing the soft rot (Erwinia carotovora) to a preliminarily dissolved PSA culture medium (55 degrees Celsius) for subsequent thorough agitation, which was then spread on a plate for culturing at 27 degrees Celsius for 2 days, to examine the growth state. Subsequently, the formed colonies were examined according to the following three grades. • +: at the same level as the level of non-treated lot. Plus or minus: apparently less than the colonies of the non-treated lot. • −: almost no colonies observed."}, "[3]": {"test_system": "soft rot of Chinese cabbage", "assay": "Test for controlling soft rot of Chinese cabbage, Example 3 / Comparative Example 3 (field, cultivar Muso)", "type": "in vivo", "conditions": "500 g ai/10 a, 150 L/10 a sprayed onto planting holes before planting, 51 days after start", "source_text": "as §1, §2, §3\n442 g/l kresoxim-methyl (STROBY FLOWABLE [trade name], manufactured by BASF) was adjusted to 500 g ai/10a (0.5 g/m^2, 1131 ml Product/10a) as the amount of the active ingredient and to 150 L/10a as the volume of diluent water. […]\nas §4, with “51” for “49”, “The” for “Herein, the”"}}}
{"smiles": "CO/N=C(/C(=O)OC)c1ccccc1COc1ccccc1C", "note": "[Kresoxim-methyl, methyl=(E)-methoxyimino[2-(o-tolyloxymethyl)phenyl]acetate]", "values": [{"measurement": "Determination of effect", "setting": "[1]", "result": "C (C: Effective at low level (21 to 40 disease control value))"}, {"measurement": "formed colonies (growth state), grade", "setting": "[2]; 100 ppm active ingredient", "result": "+, +"}, {"measurement": "formed colonies (growth state), grade", "setting": "[2]; 500 ppm active ingredient", "result": "+, +"}, {"measurement": "formed colonies (growth state), grade", "setting": "[2]; 1000 ppm active ingredient", "result": "+, +"}, {"measurement": "inhibition of growth of Erwinia carotovora (in words)", "setting": "[2]; active ingredient concentration of 1,000 ppm", "result": "never inhibited the growth"}, {"measurement": "Determination of effect", "setting": "[3]", "result": "C (C: Effective at low level (21 to 40 disease control value))"}]}
